Experiments:
[1] = target: T1, four-protein fatty acid uptake complex within the DRM-domain of CaCo2 plasma membranes (Homo sapiens, UniProt O60733); experiment: Disintegration of the fatty acid uptake complex in CaCo2 cells; type: cell-based
T1 construct: the DRM domains of the plasma membrane were isolated from native CaCo2 cells; endogenous in cells; host or cells: CaCo2
T1 sequence (O60733 1-806): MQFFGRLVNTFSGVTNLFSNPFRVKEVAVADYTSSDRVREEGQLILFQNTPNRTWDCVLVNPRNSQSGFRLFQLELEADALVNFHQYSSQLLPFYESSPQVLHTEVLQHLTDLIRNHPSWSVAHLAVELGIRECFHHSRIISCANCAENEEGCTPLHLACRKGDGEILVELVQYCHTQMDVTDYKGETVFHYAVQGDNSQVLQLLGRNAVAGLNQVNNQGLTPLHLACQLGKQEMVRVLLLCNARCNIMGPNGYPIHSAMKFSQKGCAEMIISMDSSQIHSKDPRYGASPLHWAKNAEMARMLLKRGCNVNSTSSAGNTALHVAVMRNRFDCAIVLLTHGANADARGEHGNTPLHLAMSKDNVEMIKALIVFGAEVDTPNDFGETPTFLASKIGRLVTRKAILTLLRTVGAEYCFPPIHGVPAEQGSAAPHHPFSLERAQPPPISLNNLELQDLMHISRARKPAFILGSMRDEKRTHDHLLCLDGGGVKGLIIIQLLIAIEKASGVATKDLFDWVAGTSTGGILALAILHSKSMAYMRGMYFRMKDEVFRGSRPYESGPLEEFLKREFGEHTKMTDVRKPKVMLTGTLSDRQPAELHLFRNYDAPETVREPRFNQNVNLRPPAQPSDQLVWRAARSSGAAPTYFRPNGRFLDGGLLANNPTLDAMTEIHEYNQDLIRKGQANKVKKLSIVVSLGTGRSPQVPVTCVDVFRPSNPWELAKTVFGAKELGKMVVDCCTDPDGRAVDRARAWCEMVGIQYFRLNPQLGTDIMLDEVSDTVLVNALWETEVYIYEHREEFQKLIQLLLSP
Experimental: All other experiments were assessed with CaCo2 cells as described in Ex. 1, mutatis mutandis.

CaCo2 cells = experiment: Fatty acid influx in CaCo2 cells; type: cell-based

minimal concentration for disintegration of the complex [1]: 50 µM
exposure time for disintegration of the complex ([1]; 50 µM): 30 min
Substance: ursodeoxycholatelysophosphatidylethanolamide [UDCA-LPE]
apical fatty acid influx (CaCo2 cells; CaCo2 cells cultured 21 days (polarized), pretreatment at the apical site): significantly inhibited
inhibition of fatty acid influx (CaCo2 cells; UDCA-LPE 100 µM, 1 h, scrambled siRNA control conditions): > 50%
fatty acid influx kinetics (CaCo2 cells; preincubation of CaCo2 cells): non-competitive inhibition
